Species on record: Rattus norvegicus
Test: DrugMatrix - Regimen: Daily Repeat
Type: toxicity, organism-based, Sprague-Dawley
Parameters: regimen Daily Repeat, gender Male, age 6-8 weeks
Settings: in vivo, po, route oral GAVAGE, vehicle 100 % WATER; for ABSOLUTE BASOPHIL / ABSOLUTE EOSINOPHIL / ABSOLUTE LYMPHOCYTE / ABSOLUTE MONOCYTE / ABSOLUTE SEGMENTED NEUTROPHIL / BASOPHIL / EOSINOPHIL / ERYTHROCYTE COUNT / HEMATOCRIT / HEMOGLOBIN / LEUKOCYTE COUNT / LYMPHOCYTE / MEAN CORPUSCULAR HEMOGLOBIN / MEAN CORPUSCULAR HEMOGLOBIN CONCENTRATION / MEAN CORPUSCULAR VOLUME / MONOCYTE / NEUTROPHIL / NUCLEATED RED BLOOD CELLS / PLATELET COUNT: tissue Blood; for ALANINE AMINOTRANSFERASE / ALBUMIN / ALKALINE PHOSPHATASE / ASPARTATE AMINOTRANSFERASE / BLOOD UREA NITROGEN / CARBON DIOXIDE / CHLORIDE / CHOLESTEROL / CREATINE PHOSPHOKINASE / CREATININE / GLUCOSE / LACTATE DEHYDROGENASE / LIPASE / PHOSPHORUS / SODIUM / TOTAL BILIRUBIN / TOTAL PROTEIN / URIC ACID: tissue Plasma
[1] = 100 mg/kg, 120 h, dose level Low, time 5 day
[2] = 500 mg/kg, 72 h, dose level High, time 3 day
[3] = 500 mg/kg, 120 h, dose level High, time 5 day

CCN(CC)C(=S)SSC(=S)N(CC)CC
ABSOLUTE BASOPHIL [1]: 0 CELLS/uL
ABSOLUTE EOSINOPHIL [1]: 0 CELLS/uL
ABSOLUTE LYMPHOCYTE [1]: 13796 CELLS/uL
ABSOLUTE MONOCYTE [1]: 155.67 CELLS/uL
ABSOLUTE SEGMENTED NEUTROPHIL [1]: 1615 CELLS/uL
BASOPHIL [1]: 0%
EOSINOPHIL [1]: 0%
ERYTHROCYTE COUNT [1]: 5.47 x10E6/uL
HEMATOCRIT [1]: 33.87%
HEMOGLOBIN [1]: 13.53 G/DL
LEUKOCYTE COUNT [1]: 15.57 x10E3/uL
LYMPHOCYTE [1]: 89%
MEAN CORPUSCULAR HEMOGLOBIN [1]: 24.8 pg
MEAN CORPUSCULAR HEMOGLOBIN CONCENTRATION [1]: 39.97 G/DL
MEAN CORPUSCULAR VOLUME [1]: 62 fL
MONOCYTE [1]: 1%
NEUTROPHIL [1]: 10%
NUCLEATED RED BLOOD CELLS [1]: 0 /100WBC
PLATELET COUNT [1]: 1356.33 x10E3/uL
ALANINE AMINOTRANSFERASE [1]: 42.67 u/L
ALBUMIN [1]: 4.1 G/DL
ALKALINE PHOSPHATASE [1]: 265.33 u/L
ASPARTATE AMINOTRANSFERASE [1]: 70 u/L
BLOOD UREA NITROGEN [1]: 15.33 mg/dL
CARBON DIOXIDE [1]: 31.67 mmol/L
CHLORIDE [1]: 102.67 MEQ/L
CHOLESTEROL [1]: 83.67 mg/dL
CREATINE PHOSPHOKINASE [1]: 216.33 u/L
CREATININE [1]: 0.15 mg/dL
GLUCOSE [1]: 123.67 mg/dL
LACTATE DEHYDROGENASE [1]: 231 u/L
LIPASE [1]: 11.33 u/L
PHOSPHORUS [1]: 11.73 mg/dL
SODIUM [1]: 145.07 MEQ/L
TOTAL BILIRUBIN [1]: 0.2 mg/dL
TOTAL PROTEIN [1]: 6 G/DL
URIC ACID [1]: 1.37 mg/dL
ABSOLUTE BASOPHIL [2]: 0 CELLS/uL
ABSOLUTE EOSINOPHIL [2]: 32 CELLS/uL
ABSOLUTE LYMPHOCYTE [2]: 16158.67 CELLS/uL
ABSOLUTE MONOCYTE [2]: 362.67 CELLS/uL
ABSOLUTE SEGMENTED NEUTROPHIL [2]: 2246.67 CELLS/uL
BASOPHIL [2]: 0%
EOSINOPHIL [2]: 0.33%
ERYTHROCYTE COUNT [2]: 5.54 x10E6/uL
HEMATOCRIT [2]: 34.57%
HEMOGLOBIN [2]: 13.7 G/DL
LEUKOCYTE COUNT [2]: 18.8 x10E3/uL
LYMPHOCYTE [2]: 85%
MEAN CORPUSCULAR HEMOGLOBIN [2]: 24.73 pg
MEAN CORPUSCULAR HEMOGLOBIN CONCENTRATION [2]: 39.63 G/DL
MEAN CORPUSCULAR VOLUME [2]: 62.43 fL
MONOCYTE [2]: 2.33%
NEUTROPHIL [2]: 12.33%
NUCLEATED RED BLOOD CELLS [2]: 0 /100WBC
PLATELET COUNT [2]: 1410.67 x10E3/uL
ALANINE AMINOTRANSFERASE [2]: 78.33 u/L
ALBUMIN [2]: 3.87 G/DL
ALKALINE PHOSPHATASE [2]: 211.67 u/L
ASPARTATE AMINOTRANSFERASE [2]: 279.33 u/L
BLOOD UREA NITROGEN [2]: 11.33 mg/dL
CARBON DIOXIDE [2]: 30.33 mmol/L
CHLORIDE [2]: 102.33 MEQ/L
CHOLESTEROL [2]: 124 mg/dL
CREATINE PHOSPHOKINASE [2]: 747.67 u/L
CREATININE [2]: 0.15 mg/dL
GLUCOSE [2]: 121.33 mg/dL
LACTATE DEHYDROGENASE [2]: 433.33 u/L
LIPASE [2]: 11.33 u/L
PHOSPHORUS [2]: 10.77 mg/dL
SODIUM [2]: 143.53 MEQ/L
TOTAL BILIRUBIN [2]: 0.13 mg/dL
TOTAL PROTEIN [2]: 5.93 G/DL
URIC ACID [2]: 1.53 mg/dL
ABSOLUTE BASOPHIL [3]: 0 CELLS/uL
ABSOLUTE EOSINOPHIL [3]: 134 CELLS/uL
ABSOLUTE LYMPHOCYTE [3]: 14987.33 CELLS/uL
ABSOLUTE MONOCYTE [3]: 0 CELLS/uL
ABSOLUTE SEGMENTED NEUTROPHIL [3]: 1378.67 CELLS/uL
BASOPHIL [3]: 0%
EOSINOPHIL [3]: 0.67%
ERYTHROCYTE COUNT [3]: 4.95 x10E6/uL
HEMATOCRIT [3]: 30.57%
HEMOGLOBIN [3]: 12.3 G/DL
LEUKOCYTE COUNT [3]: 16.5 x10E3/uL
LYMPHOCYTE [3]: 90.33%
MEAN CORPUSCULAR HEMOGLOBIN [3]: 24.83 pg
MEAN CORPUSCULAR HEMOGLOBIN CONCENTRATION [3]: 40.2 G/DL
MEAN CORPUSCULAR VOLUME [3]: 61.67 fL
MONOCYTE [3]: 0%
NEUTROPHIL [3]: 9%
NUCLEATED RED BLOOD CELLS [3]: 0 /100WBC
PLATELET COUNT [3]: 1031.33 x10E3/uL
ALANINE AMINOTRANSFERASE [3]: 55 u/L
ALBUMIN [3]: 3.83 G/DL
ALKALINE PHOSPHATASE [3]: 254 u/L
ASPARTATE AMINOTRANSFERASE [3]: 134.33 u/L
BLOOD UREA NITROGEN [3]: 16.33 mg/dL
CARBON DIOXIDE [3]: 27 mmol/L
CHLORIDE [3]: 102.67 MEQ/L
CHOLESTEROL [3]: 109 mg/dL
CREATINE PHOSPHOKINASE [3]: 292.67 u/L
CREATININE [3]: 0.16 mg/dL
GLUCOSE [3]: 155.33 mg/dL
LACTATE DEHYDROGENASE [3]: 217.33 u/L
LIPASE [3]: 11.33 u/L
PHOSPHORUS [3]: 12 mg/dL
SODIUM [3]: 141.9 MEQ/L
TOTAL BILIRUBIN [3]: 0.17 mg/dL
TOTAL PROTEIN [3]: 6 G/DL
URIC ACID [3]: 1.6 mg/dL

Source: ChEMBL document CHEMBL3885881, “DrugMatrix”
